Assay results published in patent US10227331B2 (priority 2015, dated 2019).
pIC50: −log10 of the molar value.

What was measured:
VIM-1 = VIM-1 (Pseudomonas aeruginosa (strain ATCC 15692 / DSM 22644 / CIP 104116 / JCM 14847 / LMG 12228 / 1C / PRS 101 / PAO1), UniProt A0A0F7KYQ8); assay: biochemical; details: CCF2-FA substrate, 2 hours at 25° C
Procedure, shortened: (§1)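 Test compound, enzyme and the FRET cephalosporin substrate CCF2-FA are incubated together for 2 hours at 25° C. Cleavage is followed by fluorescence, and IC50 values are derived from semi-logarithmic inhibition curves fitted with a 4-parameter model.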

[1] = system: P. aeruginosa expressing IMP-1, efflux− (MB9799); assay: Efflux: concentration of MBL inhibitor which restores susceptibility to imipenem; assay type: cell-based, Pseudomonas aeruginosa; details: imipenem at 2 μg/mL, in the presence of a class A, C, D serine β-lactamase inhibitor closely related to relebactam
Description: (§2) The strain background is Pseudomonas aeruginosa PAO1.

IMP-1 = IMP-1 (Serratia marcescens, UniProt P52699); assay: biochemical; assay type: biochemical; details: CCF2-FA substrate, 2 hours at 25° C; read-out: IMP-1 IC50
IMP-1, sequence (P52699 whole entry, looked up, species assumed): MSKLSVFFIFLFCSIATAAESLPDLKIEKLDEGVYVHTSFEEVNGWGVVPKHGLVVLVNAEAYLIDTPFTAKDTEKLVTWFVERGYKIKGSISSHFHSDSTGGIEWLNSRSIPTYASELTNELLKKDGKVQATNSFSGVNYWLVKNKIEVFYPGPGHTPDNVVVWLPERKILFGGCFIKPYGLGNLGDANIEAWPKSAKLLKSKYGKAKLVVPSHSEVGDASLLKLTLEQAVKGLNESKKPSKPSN
Procedure, shortened: as §1

NDM-1 = NDM-1 (Klebsiella pneumoniae, UniProt C7C422); assay: biochemical; assay type: biochemical; details: CCF2-FA substrate, 2 hours at 25° C; read-out: NDM-1 IC50
NDM-1, sequence (C7C422 whole entry, looked up, species assumed): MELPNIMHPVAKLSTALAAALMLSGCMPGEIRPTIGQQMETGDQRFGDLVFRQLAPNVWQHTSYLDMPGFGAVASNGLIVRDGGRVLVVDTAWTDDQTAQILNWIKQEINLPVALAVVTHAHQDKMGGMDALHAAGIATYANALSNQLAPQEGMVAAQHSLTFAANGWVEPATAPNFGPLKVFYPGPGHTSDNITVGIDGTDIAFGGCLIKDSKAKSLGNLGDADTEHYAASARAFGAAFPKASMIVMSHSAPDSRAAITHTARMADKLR
Procedure, shortened: as §1

[2] = system: P. aeruginosa expressing IMP-1, efflux+ (MB9798); assay type: cell-based, Pseudomonas aeruginosa; details: for P. aeruginosa expressing IMP-1, efflux+ (MB9798) MITC95: imipenem at 2 μg/mL, in the presence of a class A, C, D serine β-lactamase inhibitor closely related to relebactam; for Efflux ratio: ratio MITC95 PA_9798/MITC95 PA_9799
Description: as §2

[3] = system: Klebsiella pneumoniae expressing VIM-1 (IHMA599644); assay type: cell-based; details: with imipenem 1 μg/ml, 95% inhibition of bacterial growth; for Klebsiella pneumoniae MITC95: VIM-1 (IHMA599644)
Procedure, shortened: (§3)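 Clinical strains grown overnight on blood agar, then diluted 1:100 in 1.1× CAMHB and exposed to test compound with imipenem at 1 μg/ml. Incubation was 22–24 h at 35° C; growth was read by absorbance to find the compound concentration restoring imipenem susceptibility.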

[4] = system: Escherichia coli expressing NDM-1 (CLB30005, CLB30016); assay type: cell-based; details: with imipenem 1 μg/ml, 95% inhibition of bacterial growth; for Escherichia coli MITC95: NDM-1 (CLB30016)
Procedure, shortened: as §3

[5] = system: Serratia marcescens expressing IMP-1 (CL5741); assay type: cell-based; details: with imipenem 1 μg/ml, 95% inhibition of bacterial growth; for Serratia marcescens MITC95: IMP-1 (CL5741)
Procedure, shortened: as §3

| Structure (SMILES) | pIC50 (VIM-1) | P. aeruginosa expressing IMP-1, efflux− (MB9799) MITC95 [1] [µM] | pIC50 (IMP-1) | pIC50 (NDM-1) | P. aeruginosa expressing IMP-1, efflux+ (MB9798) MITC95 [2] [µM] | Efflux ratio [2] | Klebsiella pneumoniae expressing VIM-1 (IHMA599644) MITC95 [3] [µM] | Escherichia coli expressing NDM-1 (CLB30016) MITC95 [4] [µM] | Serratia marcescens expressing IMP-1 (CL5741) MITC95 [5] [µM] | Klebsiella pneumoniae MITC95 [3] [µM] | Escherichia coli MITC95 [4] [µM] | Serratia marcescens MITC95 [5] [µM] |
| --- | --- | --- | --- | --- | --- | --- | --- | --- | --- | --- | --- | --- |
| CS(=O)(=O)c1ccc(-c2cccc3sc(N)nc23)c(-c2nn[nH]n2)c1S(N)(=O)=O [Example 239, 3-(2-aminobenzo[d]thiazol-4-yl)-6-(methylsulfonyl)-2-(2H-tetrazol-5-yl) benzenesulfonamide] | 9.97 | 1.563 | 10.04 | 9.89 | 1.563 | 1.00 | 6.25 | 12.5 | 3.125 | – | – | – |
| CS(=O)(=O)c1ccc(-c2cccc3nc(N)[nH]c23)c(-c2nn[nH]n2)c1S(N)(=O)=O [Example 240, 3-(2-Amino-1H-benzo[d]imidazol-7-yl)-6-(methylsulfonyl)-2-(2H-tetrazol-5-yl) benzenesulfonamide] | 8.59 | 12.5 | 8.13 | 8.32 | 50 | 4.00 | 25 | 3.125 | 12.5 | – | – | – |
| CS(=O)(=O)c1ccc(-c2ccc(NS(=O)(=O)C3CC3)cc2)c(-c2nn[nH]n2)c1S(N)(=O)=O [Example 241, 4′-(Cyclopropanesulfonamido)-4-(methylsulfonyl)-2-(2H-tetrazol-5-yl)-[1,1′-biphenyl]-3-sulfonamide] | 10.06 | 1.563 | 10.35 | 9.18 | 12.5 | 8.00 | 12.5 | 6.25 | 3.125 | – | – | – |
| NS(=O)(=O)c1c(Sc2ccncc2)ccc(-c2ccc(C3CCNCC3)cc2)c1-c1nn[nH]n1 [Example 242, 4′-(Piperidin-4-yl)-4-(pyridin-4-ylthio)-2-(2H-tetrazol-5-yl)-[1,1′-biphenyl]-3-sulfonamide] | 8.13 | 1.563 | 8.48 | 8.40 | 50 | 31.99 | 50 | 12.5 | 6.25 | – | – | – |
| NS(=O)(=O)c1c(SC2CNC2)ccc(-c2ccc(NS(=O)(=O)C3CC3)cc2)c1-c1nn[nH]n1 [Example 243, 4-(Azetidin-3-ylthio)-4′-(cyclopropanesulfonamido)-2-(2H-tetrazol-5-yl)-[1,1′-biphenyl]-3-sulfonamide] | 8.01 | 0.7813 | 7.95 | 8.23 | 100 | 127.99 | 12.5 | 3.125 | 3.125 | – | – | – |
| NS(=O)(=O)c1c(S(=O)(=O)C2CNC2)ccc(-c2ccc(NS(=O)(=O)C3CC3)cc2)c1-c1nn[nH]n1 [Example 244, 4-(Azetidin-3-ylsulfonyl)-4′-(cyclopropanesulfonamido)-2-(2H-tetrazol-5-yl)-[1,1′-biphenyl]-3-sulfonamide] | 9.95 | 1.563 | 9.84 | 9.81 | 6.25 | 4.00 | 6.25 | 3.125 | 3.125 | – | – | – |
| NS(=O)(=O)c1c(S(=O)(=O)C2CN(C(=O)NC3CC3)C2)ccc(-c2ccc(NS(=O)(=O)C3CC3)cc2)c1-c1nn[nH]n1 [Example 245, 3-((4′-(Cyclopropanesulfonamido)-3-sulfamoyl-2-(2H-tetrazol-5-yl)-[1,1′-biphenyl]-4-yl)sulfonyl)-N-cyclopropylazetidine-1-carboxamide] | 9.66 | 6.25 | 9.90 | 9.41 | 50 | 8.00 | – | – | – | 50 | 25 | 25 |
| NS(=O)(=O)c1cccc(-c2ccc(S(=O)(=O)C3CNC3)c(S(N)(=O)=O)c2-c2nn[nH]n2)c1 [Example 247, 4-(Azetidin-3-ylsulfonyl)-2-(2H-tetrazol-5-yl)-[1,1′-biphenyl]-3,3′-disulfonamide] | 8.74 | 1.563 | 8.49 | 8.70 | 25 | 15.99 | – | – | – | 3.125 | 1.563 | 1.563 |
| Nc1ncc(-c2ccc(S(=O)(=O)C3CNC3)c(S(N)(=O)=O)c2-c2nn[nH]n2)c2cccnc12 [Example 248, 3-(8-Amino-1,7-naphthyridin-5-yl)-6-(azetidin-3-ylsulfonyl)-2-(2H-tetrazol-5-yl)benzenesulfonamide] | 9.25 | 1.563 | 8.68 | 9.25 | 6.25 | 4.00 | – | – | – | 3.125 | 3.125 | 1.563 |
| Nc1nc2c(-c3ccc(S(=O)(=O)c4cccc(C(F)(F)F)c4)c(S(N)(=O)=O)c3-c3nn[nH]n3)cccc2s1 [Example 250, 3-(2-Aminobenzo[d]thiazol-4-yl)-2-(2H-tetrazol-5-yl)-6-((3-(trifluoromethyl)phenyl)sulfonyl)benzenesulfonamide] | 9.17 | 3.125 | 9.09 | 9.61 | 200 | 64.00 | – | – | – | 100 | 6.25 | 6.25 |
| Nc1nc2c(-c3ccc(S(=O)(=O)C4CNC4)c(S(N)(=O)=O)c3-c3nn[nH]n3)ccc(F)c2[nH]1 [Example 251, 3-(2-Amino-7-fluoro-1H-benzo[d]imidazol-4-yl)-6-(azetidin-3-ylsulfonyl)-2-(2H-tetrazol-5-yl)benzenesulfonamide] | 9.60 | 0.7813 | 9.13 | 10.14 | 1.563 | 2.00 | – | – | – | 1.563 | 0.3906 | 1.563 |
| COC(=O)c1nc2c(-c3ccc(S(=O)(=O)C4CNC4)c(S(N)(=O)=O)c3-c3nn[nH]n3)cccc2[nH]1 [Example 252, Methyl 4-(4-(azetidin-3-ylsulfonyl)-3-sulfamoyl-2-(2H-tetrazol-5-yl)phenyl)-1H-benzo[d]imidazole-2-carboxylate] | 9.68 | 3.125 | 9.37 | 10.33 | 3.125 | 1.00 | – | – | – | 6.25 | 1.563 | 3.125 |
| NS(=O)(=O)c1c(S(=O)(=O)C2CNC2)ccc(-c2cccc3[nH]c(C(=O)O)nc23)c1-c1nn[nH]n1 [Example 253, 4-(4-(Azetidin-3-ylsulfonyl)-3-sulfamoyl-2-(2H-tetrazol-5-yl)phenyl)-1H-benzo[d]imidazole-2-carboxylic Acid] | 9.53 | 1.563 | 9.18 | 9.76 | 1.563 | 1.00 | – | – | – | 3.125 | 1.563 | 1.563 |
